The record followed here is article PMC6986443, “T‐495, a novel low cooperative M1 receptor positive allosteric modulator, improves memory deficits associated with cholinergic dysfunction and is characterized by low gastrointestinal side effect risk” (Pharmacology Research & Perspectives, 2020).

Read-outs that look alike come from different tables or passages of the source.

Usually Kp stands for tissue or fluid exposure divided by exposure in the circulation.

For data set [1], the system named is human M2R–M5R. The data set is described as follows: Ca2+ mobilization assay, PAM activity (with EC20 ACh), CHO‐K1 cells. To be noted: inflection point, EC20 concentration of ACh, read-out: PAM activity IP. It counts as cell-based. How it is done:
(§1) Chinese hamster ovary (CHO)‐K1 cells expressing M1R–M5R were plated on a 96‐well black, clear bottom plate at 30 000 cells/well and incubated at 37°C in an atmosphere of 5% CO2 for 1 day. On the day of the assay, cells were incubated with calcium dye buffer (Hanks’ Balanced Salt Solution (HBSS) containing 20 mmol/L HEPES, 0.1% fatty acid‐free bovine serum albumin (BSA), 0.08% pluronic F127 (Dojindo Laboratories), 2.5 μg/mL Fluo‐4 (Dojindo Laboratories), and 1.25 mmol/L probenecid (Dojindo Laboratories)) for 30 minutes at 37°C in an atmosphere of 5% CO2 and then incubated for 30 minutes at room temperature. To measure Ca^2+ mobilization using CellLux (PerkinElmer), cells were stimulated with T‐495 or MK‐7622 (0.01‐1000 nmol/L for PAM activity; 0.3‐10 000 nmol/L for agonist activity) in assay buffer (HBSS containing 20 mmol/L HEPES and 0.1% fatty acid‐free BSA) with or without an EC20 concentration of ACh. The inflection point (IP) and EC50 values were calculated using the following equation by GraphPad Prism 5 software (GraphPad Software Inc): Y=Bottom+(Top-Bottom)/1+10^(Log IPorEC50-X×HillSlope))
(§2) where X and Y are the log concentration of a compound and the percentage of Ca^2+ response, respectively, and Top and Bottom are the upper and lower plateaus, respectively.

For data set [2], the system named is IP1 production in the rat hippocampus. The data set is described as follows: In vivo IP1 assay, rat hippocampus. The settings on record: LiCl 10 mmol/kg s.c., vs vehicle. How it is done: (§3) Eight‐week‐old Long‐Evans rats, 8‐ to 9‐week‐old C57BL/6J mice, and 22‐ or 29‐week‐old M1R KO mice and their WT littermates were used in this study. On the day of the experiment, animals were placed in individual cages and acclimated for more than 1 hour. A test compound or vehicle was administered 2 hours before the animals were sacrificed. […] LiCl (10 mmol/kg, s.c.) was injected 1 hour before sacrifice. In the repeated administration study, a test compound was administered to mice once daily for 13 days; on day 14, animals were treated with a test compound and LiCl (10 mmol/kg, s.c.) and then sacrificed. Animals were killed by decapitation, and blood was collected into tubes containing ethylenediaminetetraacetic acid for pharmacokinetic analysis; brains were quickly dissected, frozen on dry ice, and stored at −80°C until analysis. Brain tissues were homogenized in 19 (for rat tissues) or 39 (for mouse tissue) volumes of homogenization buffer (10 mmol/L HEPES pH 7.4, 50 mmol/L LiCl, 150 mmol/L NaCl, and 1% Triton X‐100), and the homogenate was incubated on a rotator for 1 hour, followed by centrifugation. The supernatant was diluted with 39 (for rat tissues) or 19 (for mouse tissues) volumes of dilution buffer (10 mmol/L HEPES pH 7.4, 50 mmol/L LiCl, and 150 mmol/L NaCl). IP1 and protein concentrations in the diluted supernatant were measured using IP‐One HTRF assay kit (Cisbio Bioassays) and BCA Protein Assay Kit (Thermo Fisher Scientific Inc), respectively, according to the manufacturers’ instructions. IP1 production was expressed as the ratio of IP1 to protein concentrations.

For data set [3], the system named is IP1 production in the mouse hippocampus. The data set is described as follows: In vivo IP1 assay, mouse hippocampus. To be noted: p.o.; 3, 10, 30 mg/kg tested. How it is done:
as §3, with “Brain tissues were homogenized in 19 (for rat tissues) or 39 (for mouse tissue) volumes of homogenization buffer (10 mmol/L HEPES pH 7.4, 50 mmol/L LiCl, 150 mmol/L NaCl, and 1% Triton X‐100), and the homogenate was incubated on a rotator for 1 hour, followed by centrifugation. The supernatant was diluted with 39 (for rat tissues) or 19 (for mouse tissues) volumes of dilution buffer (10 mmol/L HEPES pH 7.4, 50 mmol/L LiCl, and 150 mmol/L NaCl).” left out

For data set [4], the system named is IP1 production in the hippocampus, prefrontal cortex, striatum, and brainstem. The data set is described as follows: In vivo IP1 assay, wild‐type and M1R KO mice. The arrangement: species or system mouse. As for the experimental part: as §3
Data set [5] in a line: Concentrations in plasma and brain of wild-type and M1R KO mice. It is filed as in vivo. To be noted: mouse, po; for concentration at 2 h: mean ± SD; for Kp at 2 h: brain/plasma. How it is done: as §3
For data set [6], the system named is rats pretreated with scopolamine. The data set is described as follows: Novel object recognition (NOR) test, scopolamine‐induced memory impairment. It is filed as in vivo, rat. The settings on record: for scopolamine‐induced NDI reduction, retention trial: scopolamine 0.1 mg/kg s.c. As for the experimental part: On Day 1, 7‐week‐old Long‐Evans rats were individually placed into the test box fabricated from polyvinyl chloride (40‐cm square with 50‐cm high walls) without any objects for 10 minutes. […] In the acquisition trial, each rat was placed in the test box containing two identical objects and allowed to explore them for 3 minutes. After an intertrial interval of 4 hours, each rat was again placed in the same test box containing one familiar and one novel objects and allowed to explore both for 3 minutes (retention trial). The behavior of each animal during the acquisition and retention trials was recorded on video, and the time spent exploring each object (licking, sniffing, or touching the object with the forepaws) was scored manually. Results were presented as novelty discrimination index (NDI) calculated as follows: the exploration time for the novel object/the exploration time for both objects × 100.

Data set [7] concerns the target T1, human M1R (Homo sapiens, UniProt P11229).
T1 sequence (P11229 1-460): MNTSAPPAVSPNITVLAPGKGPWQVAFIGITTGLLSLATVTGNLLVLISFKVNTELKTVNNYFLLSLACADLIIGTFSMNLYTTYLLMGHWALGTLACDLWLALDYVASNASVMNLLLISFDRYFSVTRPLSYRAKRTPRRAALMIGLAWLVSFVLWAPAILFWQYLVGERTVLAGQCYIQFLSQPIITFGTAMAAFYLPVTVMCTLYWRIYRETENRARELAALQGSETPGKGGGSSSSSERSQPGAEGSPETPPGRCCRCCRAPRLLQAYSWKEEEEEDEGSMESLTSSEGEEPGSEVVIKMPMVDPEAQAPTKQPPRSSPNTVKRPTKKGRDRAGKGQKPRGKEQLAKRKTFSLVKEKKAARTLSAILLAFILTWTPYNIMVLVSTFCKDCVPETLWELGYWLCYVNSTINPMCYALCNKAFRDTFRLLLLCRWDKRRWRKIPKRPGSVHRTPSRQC
The data set is described as follows: Ca2+ mobilization assay, agonist activity (absence of ACh), CHO‐K1 cells. It counts as cell-based. Further details: expressed in transfected cells; host or cells: CHO-K1. The settings on record: for margin between PAM and agonist activities: CHO‐K1 cells expressing human M1R. How it is done: as §1, §2
On the technique in general: Calcium assays in cells follow changes in intracellular calcium, usually with a dye or a luminescent sensor.

For the compound `Cc1ccc(Cc2cc3c(=O)n([C@H]4CCCC[C@@H]4O)cnc3c3ccccc23)cn1` [MK‐7622, 3‐((1S,2S)‐2‐hydroxycyclohexyl)‐6‐((6‐methylpyridin‐3‐yl)methyl)benzo[h]quinazolin‐4(3H)‐one, reference compound], the EC50 was more than 1 µM in data set [1] and 0.407 µM in data set [7]. Besides, in data set [2] (10 mg/kg p.o.), the “IP1 production in the rat hippocampus” value is “significantly increased”. In addition, the “minimum effective dose for increase of IP1 production in the mouse hippocampus” value in data set [3] is on record as 10 mg/kg. The “IP1 production in the brainstem” value in data set [4] (M1R KO mice (and wild‐type), 20 mg/kg p.o.) is listed as “slight reduction”; in data set [4] (wild‐type mice, 20 mg/kg p.o.) it was “slightly reduced”. In addition, the “IP1 production in hippocampus, prefrontal cortex, and striatum” value in data set [4] (M1R KO mice, 20 mg/kg p.o.) was “did not cause a significant increase”. The “IP1 production in the forebrain” value in data set [4] (wild‐type mice, 20 mg/kg p.o.) is “increased”. Moreover, the concentration at 2 h in data set [5] (brain (hippocampus), 20 mg/kg, M1R KO mice hippocampus, 20 mg/kg p.o., read-out: Brain concentration) was found to be 456 ± 85.8 ng/g; in data set [5] (brain (hippocampus), 20 mg/kg, wild-type mice hippocampus, 20 mg/kg p.o., read-out: Brain concentration) it was 582 ± 133 ng/g; in data set [5] (plasma, 20 mg/kg, M1R KO mice, 20 mg/kg p.o., n = 10, read-out: Plasma concentration) it was 2190 ± 312 ng/mL; in data set [5] (plasma, 20 mg/kg, wild-type mice, 20 mg/kg p.o., n = 10, read-out: Plasma concentration), 2240 ± 376 ng/mL. Also, the Kp at 2 h in data set [5] (20 mg/kg, M1R KO mice, 20 mg/kg p.o.) is 0.21; in data set [5] (20 mg/kg, wild-type mice, 20 mg/kg p.o.) it was 0.26. Also, the entries for the “scopolamine‐induced NDI reduction, retention trial” value in data set [6] (1 mg/kg p.o.), in data set [6] (3 mg/kg p.o.) and in data set [6] (10 mg/kg p.o.) were “subeffective”, “significantly reversed” and “significantly reversed”, respectively. Besides, the “scopolamine‐induced NDI reduction, combination with donepezil” value in data set [6] (MK‐7622 1 mg/kg + donepezil 0.1 mg/kg p.o.) is on record as “could not reverse”. Further, in data set [7], the “margin between PAM and agonist activities” value worked out at 313 fold.
As for `Cc1c(Cc2ccc(Cl)nc2)cc2c(c1Cl)OCN([C@H]1CCC[C@@H]1O)C2=O` [T‐495, 8‐chloro‐6‐((6‐chloropyridin‐3‐yl)methyl)‐3‐((1S,2S)‐2‐hydroxycyclopentyl)‐7‐methyl‐2,3‐dihydro‐4H‐1,3‐benzoxazin‐4‐one], the EC50 was more than 1 µM in data set [1] and 0.649 µM in data set [7]. The “IP1 production in the rat hippocampus” value in data set [2] (10 mg/kg p.o.) and in data set [2] (30 mg/kg p.o.) was “significantly increased” each time. Also, the “minimum effective dose for increase of IP1 production in the mouse hippocampus” value in data set [3] is recorded as 10 mg/kg. In addition, the “IP1 production in hippocampus, prefrontal cortex, and striatum” value in data set [4] (M1R KO mice, 10 mg/kg p.o.) is “did not cause a significant increase”; in data set [4] (wild‐type mice, 10 mg/kg p.o.) it was “significantly increased”. Besides, the concentration at 2 h in data set [5] (brain (hippocampus), 10 mg/kg, M1R KO mice hippocampus, 10 mg/kg p.o., read-out: Brain concentration) is 856 ± 78.4 ng/g; in data set [5] (brain (hippocampus), 10 mg/kg, wild-type mice hippocampus, 10 mg/kg p.o., read-out: Brain concentration), 1030 ± 145 ng/g; in data set [5] (plasma, 10 mg/kg, M1R KO mice, 10 mg/kg p.o., n = 10, read-out: Plasma concentration) it was 1590 ± 266 ng/mL; in data set [5] (plasma, 10 mg/kg, wild-type mice, 10 mg/kg p.o., n = 10, read-out: Plasma concentration) it was 1690 ± 280 ng/mL. For the same compound, the Kp at 2 h in data set [5] (10 mg/kg, M1R KO mice, 10 mg/kg p.o.) worked out at 0.55; in data set [5] (10 mg/kg, wild-type mice, 10 mg/kg p.o.), 0.62 ± 0.1. The entries for the “scopolamine‐induced NDI reduction, retention trial” value in data set [6] (0.3 mg/kg p.o.), in data set [6] (1 mg/kg p.o.) and in data set [6] (3 mg/kg p.o.) were “subeffective”, “significantly reversed” and “significantly reversed”, respectively. The “scopolamine‐induced NDI reduction, combination with donepezil” value in data set [6] (T‐495 0.3 mg/kg + donepezil 0.1 mg/kg p.o.) is on record as “significantly improved”. The “margin between PAM and agonist activities” value in data set [7] is recorded as 282 fold.
